In PMC8286831, “Identifying SARS-CoV-2 antiviral compounds by screening for small molecule inhibitors of nsp13 helicase” (Biochemical Journal, 2021):
Read-outs that look alike come from different tables or passages of the source.

What was measured:
[1] = target: SARS-CoV-2 nsp13 helicase (Severe acute respiratory syndrome coronavirus 2, UniProt P0DTD1); assay: biochemical; format: biochemical; conditions: for nsp13 inhibition and detergent sensitivity: presence or absence of non-ionic detergent
[2] = target: T1, SARS-CoV-2 RdRp holoenzyme (Severe acute respiratory syndrome coronavirus 2, UniProt P0DTD1); assay: FRET-based RdRp strand displacement assay; format: biochemical
T1 construct: (Sf nsp12-3F/7L8 preincubated with Sf 7H8 at a 1:3 ratio); 3F (3xFlag) (C); made in house; host or cells: 'Sf', read as Spodoptera frugiperda insect cells (my inference from the prefix); details are in Bertolin et al

[3] = IC50 0.02% Tween-20 + (presence)
[4] = IC50 0.02% Tween-20 − (absence)
[5] = RNA (nsp13 substrate), 0.3 mM ATP, 0.02% Tween-20 in RdRp assay buffer, read-out: IC50 nsp13
[6] = RNA (RdRp substrate), 0.3 mM each NTP, 0.02% Tween-20 in RdRp assay buffer, read-out: IC50 RdRp
[7] = RNA (nsp13 substrate), 0.3 mM ATP, 0.02% Tween-20 in RdRp assay buffer
[8] = RNA (RdRp substrate), 0.3 mM each NTP, 0.02% Tween-20 in RdRp assay buffer
[9] = read-out: IC50 + 0.02% Tween-20

Q: How did the IC50 [1, 3] turn out when `CC(C)(Sc1ccc(CCN(CCCCC2CCCCC2)C(=O)NC2CCCCC2)cc1)C(=O)O` [GW7647] was run?
A: Its IC50 is 25 µM.

Q: And the IC50 [1, 4]?
A: Its IC50 is 2.3 µM.

Q: And the IC50 ([1]; IC50 + 0.02% Tween-20)?
A: Its IC50 is 27 µM.

Q: What about the IC50 ([1]; IC50 No detergent) of the same compound?
A: Its IC50 is 5.9 µM.

Q: What about the IC50 [1, 5] of the same compound?
A: The IC50 was 39 µM.

Q: What about the IC50 [2, 6] of the same compound?
A: Its IC50 is 32 µM.

Q: With `Cc1cc2c(C(C)C)c(O)c(O)c(C=O)c2c(O)c1-c1c(C)cc2c(C(C)C)c(O)c(O)c(C=O)c2c1O` [Gossypol] as the compound, how does the IC50 [1, 3] read?
A: The IC50 was 31 µM.

Q: And the IC50 [1, 4]?
A: The IC50 was 1.3 µM.

Q: What about the IC50 ([1]; IC50 + 0.02% Tween-20) of the same compound?
A: The IC50 was 30 µM.

Q: What about the IC50 ([1]; IC50 No detergent) of the same compound?
A: The IC50 was 1.9 µM.

Q: What about the IC50 [1, 5] of the same compound?
A: Its IC50 is 26 µM.

Q: And the IC50 [2]?
A: The IC50 was 17 µM.

Q: What does the source list for `COc1c2c3c4c(c(OC)c(=O)c5c(O)cc(OC)c(c6c(OC)cc(O)c(c1=O)c63)c54)[C@@H](C(C)=O)[C@@](C)(O)C2` [Hypocrellin A]?
A: IC50 ([1]; IC50 + 0.02% Tween-20): > 250 µM; IC50 ([1]; IC50 No detergent): 12 µM; nsp13 inhibition and detergent sensitivity [1]: clear inhibition only in the absence of detergent

Q: With `COc1cc(C(=O)O)ccc1NC(=O)[C@@H]1N[C@@H](CC(C)(C)C)[C@](C#N)(c2ccc(Cl)cc2F)[C@H]1c1cccc(Cl)c1F` [Idasanutlin] as the compound, how does the IC50 [1, 3] read?
A: Its IC50 is 11 µM.

Q: What about the IC50 [1, 4] of the same compound?
A: Its IC50 is 2.3 µM.

Q: What about the IC50 [1, 5] of the same compound?
A: The IC50 was 19 µM.

Q: What about the IC50 [2, 6] of the same compound?
A: Its IC50 is 36 µM.

Q: Which IC50 ([1]; IC50 + 0.02% Tween-20) does the source give for `Nc1nc2c(c(=O)[nH]1)N(C=O)C(CNc1ccc(C(=O)N[C@@H](CCC(=O)O)C(=O)O)cc1)CN2` (some centres unmarked) [Leucovorin Calcium] here?
A: Its IC50 is greater than 250 µM.

Q: And the IC50 ([1]; IC50 No detergent)?
A: Its IC50 is greater than 250 µM.

Q: What about the “IC50 nsp13” value [1, 7] of the same compound?
A: The value was “No inhibition”.

Q: What about the “IC50 RdRp” value [2, 8] of the same compound?
A: Its value is “No inhibition”.

Q: With `CS(=O)(=O)c1cccc(C[C@H](NC(=O)c2c(Cl)cc3c(c2Cl)CCN(C(=O)c2ccc4ccoc4c2)C3)C(=O)O)c1` [Lifitegrast] as the compound, how does the “IC50 + 0.02% Tween-20” value [1] read?
A: Its value is “No inhibition”.

Q: What about the “IC50 No detergent” value [1] of the same compound?
A: Its value is “No inhibition”.

Q: With `Cc1ccc(F)c(NC(=O)Nc2ccc(-c3cccc4[nH]nc(N)c34)cc2)c1` [Linifanib/ABT-869, Linifanib] as the compound, how does the IC50 ([1]; IC50 + 0.02% Tween-20) read?
A: The IC50 was 230 µM.

Q: And the IC50 ([1]; IC50 No detergent)?
A: The IC50 was 26 µM.

Q: And the “IC50 nsp13” value [1, 7]?
A: The value was “No inhibition”.

Q: What about the “IC50 RdRp” value [2, 8] of the same compound?
A: Its value is “No inhibition”.

Q: What does the source list for `CCCCC/C=C\C/C=C\CCCCCCCC(=O)O` [Linoleic acid]?
A: IC50 [1, 3]: 36 µM; IC50 [1, 4]: 4.3 µM; IC50 ([1]; IC50 + 0.02% Tween-20): 38 µM; IC50 ([1]; IC50 No detergent): 11 µM; IC50 nsp13 [1, 7]: No inhibition; nsp13 inhibition and detergent sensitivity [1]: strong sensitivity to detergents; IC50 RdRp [2, 8]: No inhibition

Q: `O=C1c2c(O)ccc(O)c2C(=O)c2c(NCCNCCO)ccc(NCCNCCO)c21` [Mitoxantrone] was tested. Which “IC50 + 0.02% Tween-20” value [1] did it give?
A: Its value is “Quenching”.

Q: And the “IC50 No detergent” value [1]?
A: Its value is “Quenching”.

Q: What does the source list for `CC1(C)CCC(c2ccc(Cl)cc2)=C(CN2CCN(c3ccc(C(=O)NS(=O)(=O)c4ccc(N[C@H](CCN5CCOCC5)CSc5ccccc5)c(S(=O)(=O)C(F)(F)F)c4)cc3)CC2)C1` [Navitoclax]?
A: IC50 [1, 3]: > 250 µM; IC50 [1, 4]: 0.74 µM; IC50 ([1]; IC50 + 0.01% Triton X-100): 7.3 µM; IC50 ([1]; IC50 + 0.02% Tween-20): > 250 µM; IC50 ([1]; IC50 -Triton X-100): 2.2 µM; IC50 ([1]; IC50 No detergent): 1.2 µM; IC50 [1, 5]: > 100 µM; nsp13 inhibition and detergent sensitivity [1]: strong sensitivity to detergents; IC50 [2, 6]: 92 µM

Q: Which results are given for `CCCc1c2oc(C(=O)O)cc(=O)c2cc2c(=O)cc(C(=O)O)n(CC)c12` [Nedocromil]?
A: IC50 + 0.02% Tween-20 [1]: No inhibition; IC50 No detergent [1]: No inhibition

Q: How did the IC50 [1, 3] turn out when `CCCCCCCC/C=C\CCCCCCCC(=O)O` [Oleic acid] was run?
A: The IC50 was 117 µM.

Q: And the IC50 [1, 4]?
A: Its IC50 is 14 µM.

Q: And the IC50 ([1]; IC50 + 0.02% Tween-20)?
A: The IC50 was 58 µM.

Q: And the IC50 ([1]; IC50 No detergent)?
A: Its IC50 is 6.8 µM.

Q: What about the “IC50 nsp13” value [1, 7] of the same compound?
A: The value was “No inhibition”.

Q: What about the “IC50 RdRp” value [2, 8] of the same compound?
A: The value was “No inhibition”.

Q: How did the “IC50 + 0.02% Tween-20” value [1] turn out when `O=C(N[C@H]1CCS[C@H]2CCC[C@@H](C(=O)O)N2C1=O)[C@@H](S)Cc1ccccc1` [Omapatrilat] was run?
A: Its value is “No inhibition”.

Q: And the IC50 ([1]; IC50 No detergent)?
A: Its IC50 is greater than 250 µM.

Q: Which “IC50 nsp13” value [1] does the source give for `COc1cc(C(N)=O)ccc1NC(=O)[C@@H]1N[C@@H](CC(C)(C)C)[C@@]2(C(=O)Nc3cc(Cl)ccc32)[C@H]1c1cccc(Cl)c1F` [RO8994] here?
A: The value was “No inhibition”.

Q: And the IC50 [1, 9]?
A: The IC50 was greater than 250 µM.

Q: What about the IC50 ([1]; read-out: IC50 No detergent) of the same compound?
A: Its IC50 is 2.9 µM.

Q: And the “IC50 RdRp” value [2, 8]?
A: The value was “No inhibition”.

Q: Which “IC50 nsp13” value [1, 7] does the source give for `COc1cccc(NC(=O)/C=C/c2ccc(Cl)cc2)c1` [SB-366791] here?
A: The value was “No inhibition”.

Q: What about the IC50 [1, 9] of the same compound?
A: Its IC50 is greater than 250 µM.

Q: And the IC50 ([1]; read-out: IC50 No detergent)?
A: The IC50 was greater than 250 µM.

Q: And the “IC50 RdRp” value [2, 8]?
A: The value was “No inhibition”.

Q: Which results are given for `CN1Cc2sccc2C(c2ccc(O)c(O)c2)C1` (centres unmarked) [SKF 89145]?
A: IC50 + 0.02% Tween-20 [1]: No inhibition; IC50 No detergent [1]: No inhibition

Q: Which results are given for `Cc1cc(OCCCS(C)(=O)=O)cc(C)c1-c1cccc(COc2ccc3c(c2)OC[C@H]3CC(=O)O)c1` [TAK875, Fasiglifam]?
A: IC50 ([1]; IC50 + 0.02% Tween-20): 72 µM; IC50 ([1]; IC50 No detergent): 19 µM; nsp13 inhibition and detergent sensitivity [1]: clear inhibition only in the absence of detergent

Q: Which IC50 ([1]; read-out: IC50 0.02% Tween-20 + (presence)) does the source give for `O=C1CC(=O)c2c(Cl)c(Cl)c(Cl)c(Cl)c21` [TCID] here?
A: The IC50 was 15 µM.

Q: And the IC50 ([1]; read-out: IC50 0.02% Tween-20 − (absence))?
A: The IC50 was 1.9 µM.

Q: And the IC50 [1, 9]?
A: Its IC50 is 24 µM.

Q: And the IC50 ([1]; read-out: IC50 No detergent)?
A: The IC50 was 8.1 µM.

Q: And the IC50 ([1]; read-out: IC50 nsp13)?
A: The IC50 was 21 µM.

Q: What about the IC50 [2, 6] of the same compound?
A: Its IC50 is 35 µM.

Q: `CC(C)c1ccccc1Cc1cc(C(=O)Nc2ccc(S(=O)(=O)c3ccccc3C(C)(C)C)cc2)c(O)c(O)c1O` [TW-37] was tested. Which IC50 [1, 9] did it give?
A: Its IC50 is 109 µM.

Q: And the IC50 ([1]; read-out: IC50 No detergent)?
A: The IC50 was 2.8 µM.

Q: What about the IC50 ([1]; read-out: IC50 nsp13) of the same compound?
A: Its IC50 is 39 µM.

Q: And the IC50 [2, 6]?
A: The IC50 was 27 µM.
